Test systems include A498 renal; HOP-92 NSCLC; HS 578T breast; MOLT-4 leukemia; OVCAR-3 ovarian; OVCAR-5 ovarian; PC-3 prostate; SF-295 CNS; SK-MEL-28 melanoma; SNB-19 CNS; UO-31 renal.
Assay in all cases: NCI tumour cell line growth inhibition, 48 h

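Assay format: 96-well plates, 48-hour exposure. TGI: concentration producing complete growth inhibition.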

Turning to `COc1ccccc1NC(=O)C(=O)Cc1cnc2ccccc2n1`, the TGI in the experiment on A498 renal, in the experiment with HOP-92 NSCLC, with HS 578T breast, with MOLT-4 leukemia, with OVCAR-3 ovarian and in the experiment on OVCAR-5 ovarian was > 100 µM throughout. The TGI in the experiment on PC-3 prostate, with SF-295 CNS, in the experiment on SK-MEL-28 melanoma, in the experiment with SNB-19 CNS and in the experiment on UO-31 renal was > 100 µM in each case.

With `COC(=O)[C@H](COC(C)(C)C)NC(=O)N[C@H](C)c1ccccc1`, the TGI in the experiment with A498 renal, in the experiment on HOP-92 NSCLC, in the experiment with HS 578T breast, with MOLT-4 leukemia, with OVCAR-3 ovarian and in the experiment on OVCAR-5 ovarian was > 100 µM in each case. Also, the TGI in the experiment on PC-3 prostate, with SF-295 CNS, with SK-MEL-28 melanoma, in the experiment on SNB-19 CNS and with UO-31 renal was > 100 µM each time.

Turning to `O=C(O)C1=CN(c2ccncc2)C(c2ccco2)=CC1c1ccccc1[N+](=O)[O-]` (configuration not stated), the TGI with A498 renal was found to be 28.7 µM; with HOP-92 NSCLC it was 27.7 µM; in the experiment with HS 578T breast, 62.4 µM; in the experiment on MOLT-4 leukemia it was 14 µM; in the experiment on OVCAR-3 ovarian it was 21.2 µM; in the experiment on OVCAR-5 ovarian, 25.5 µM. The TGI with PC-3 prostate worked out at 28 µM; with SF-295 CNS, 26.2 µM; in the experiment on SK-MEL-28 melanoma, 40.9 µM; with SNB-19 CNS, 27.8 µM; with UO-31 renal it was 23.3 µM.

For the compound `CC1(C)SCc2nc3ccccc3n21`, the TGI in the experiment on A498 renal, in the experiment with HOP-92 NSCLC, in the experiment with HS 578T breast, with MOLT-4 leukemia, in the experiment on OVCAR-3 ovarian and in the experiment on OVCAR-5 ovarian was > 100 µM each time. In addition, the TGI in the experiment with PC-3 prostate, in the experiment on SF-295 CNS, in the experiment with SK-MEL-28 melanoma, in the experiment on SNB-19 CNS and in the experiment on UO-31 renal was > 100 µM in each case.

On to `Nc1nc(N)c2ncn(-c3ccccc3)c2n1`, for which the TGI in the experiment with A498 renal, in the experiment with HOP-92 NSCLC, with HS 578T breast, in the experiment with MOLT-4 leukemia, with OVCAR-3 ovarian and in the experiment with OVCAR-5 ovarian was > 100 µM each time. Also, the TGI in the experiment with PC-3 prostate, in the experiment with SF-295 CNS, in the experiment with SK-MEL-28 melanoma, in the experiment with SNB-19 CNS and in the experiment on UO-31 renal was > 100 µM each time.

As for `O=C(/C=C/c1ccc(O)c(O)c1)NC(COC(=O)/C=C/c1ccc(O)c(O)c1)C(=O)O` (configuration not stated), the TGI in the experiment on A498 renal, with HOP-92 NSCLC, with HS 578T breast, in the experiment on MOLT-4 leukemia, with OVCAR-3 ovarian and in the experiment with OVCAR-5 ovarian was > 100 µM throughout. The TGI in the experiment on PC-3 prostate, with SF-295 CNS, in the experiment with SK-MEL-28 melanoma, with SNB-19 CNS and in the experiment with UO-31 renal was > 100 µM throughout.

With `COc1ccccc1N1C(=O)CSC1c1cc(OC)c(OC)c(OC)c1` (configuration not stated), the TGI with A498 renal, with HOP-92 NSCLC, with HS 578T breast, in the experiment with MOLT-4 leukemia, in the experiment on OVCAR-3 ovarian and in the experiment with OVCAR-5 ovarian was > 100 µM each time. Moreover, the TGI is > 100 µM in the experiment on PC-3 prostate; > 100 µM with SF-295 CNS; > 100 µM in the experiment on SK-MEL-28 melanoma; > 20.8 µM in the experiment with SNB-19 CNS; > 100 µM in the experiment on UO-31 renal.

Source of the values: PubChem BioAssay (NCI).
